We go through 4 compounds from patent publication US20060110449A1, “Pharmaceutical composition” (priority 2004, published 2006).

Data set [1] deals with subjects with Seasonal Allergic Rhinitis (SAR) and Post-Nasal Drip. Kind of data set: Phase II randomized, double-blind, placebo controlled study: symptom scores (post nasal drip, anterior rhinorrhea, total symptom score). Conditions: for least square mean change from baseline in the average AM/PM PRIOR post nasal drip score, percent / least square mean change from baseline in the average AM/PM PRIOR post nasal drip score: 7-day Treatment Phase, Oxy 5 mg BID, combinations given concurrently BID; for least square mean change from baseline in the average AM/PM PRIOR post nasal drip score: all randomized subjects; for anterior rhinorrhea treatment difference vs. placebo: key secondary efficacy variable, BID, DL 2.5 mg, Oxy 5 mg.
Description: (§1) The total target enrollment was 500 subjects with 100 per arm. The study consisted of a 7-day Treatment Phase.
The primary efficacy variable was the change from baseline in the average AM/PM PRIOR post nasal drip score over the Treatment Phase of 7 days. The analysis was based on a main effect analysis of variance (ANOVA), which extracted sources of variation due to treatment and center. […] Pairwise treatment comparisons were examined using the 95% confidence intervals of the treatment differences at an unadjusted 2-sided alpha-level of 0.05.
After the examination of post nasal drip, the key secondary efficacy variable, anterior rhinorrhea, was examined in the same manner.
There were 38 subjects excluded from the efficacy evaluable subset. A majority of these subjects were excluded due to insufficient efficacy data. Determination of evaluability was perfomed prior to unblinding the database. Though the treatment duration specified in the protocol was 7 days, about 70% of subjects also completed their diary on the AM of Day 8 since the final office visit was scheduled on that day. Therefore, the AM Day 8 data were included in the calculation of the one-week average.
The primary efficacy variable was the change from baseline in the average AM/PM PRIOR post nasal drip score over the Treatment Phase of 7 days.

The conditions of data set [2]: DL 2.5 mg BID, Oxy 5 mg BID, combinations BID; 7 days.
Description: as §1
For data set [3], the system named is symptoms most closely associated with chronic nasal congestion (e.g., stuffy nose). Conditions: reportedly; cited from earlier work.
Data set [4] concerns secretions of natural tear components. The note with it: preclinical testing, reportedly; cited from earlier work.

Consider `CCN(CC)CC#CCOC(=O)C(O)(c1ccccc1)C1CCCCC1` (centres unmarked) [Oxy, Oxybutynin], for which, in data set [1] (DL 2.5 mg BID), the “least square mean change from baseline in the average AM/PM PRIOR post nasal drip score, percent” value is −17.8% and the “least square mean change from baseline in the average AM/PM PRIOR post nasal drip score” value is recorded as −0.49. For the same compound, the “anterior rhinorrhea treatment difference vs. placebo” value in data set [1] (7 days) was 0.04 points. In data set [2], the “discontinuation rate from the treatment phase” value is recorded as 5.56%, the “percentage of subjects reporting any treatment emergent adverse events” value worked out at 30.6%, the “percentage of subjects reporting dry mouth” value turned out to be 13.9% and the “subjects reporting any treatment emergent adverse events” value is listed as 33 subjects. Also, the “subjects reporting dry mouth” value in data set [2] was 15 subjects.

Regarding `Oc1cccc(Nc2ncc(F)c(Nc3cccc(O)c3)n2)c1` [R112], in data set [3], the “absolute difference over placebo” value is 9%; the “improvement from baseline measurements (prior to drug initiation)” value is on record as “up to 38%”; the “relative improvement over placebo” value was “greater than 20%”; the “symptoms most closely associated with chronic nasal congestion (e.g., stuffy nose), over placebo” value is “improved”.

`O=c1ccn([C@@H]2O[C@H](COP(=O)(O)OP(=O)(O)OP(=O)(O)OP(=O)(O)OC[C@H]3O[C@@H](n4ccc(=O)[nH]c4=O)[C@H](O)[C@@H]3O)[C@@H](O)[C@H]2O)c(=O)[nH]1` [diquafosol, Diquafosol tetrasodium]: the “secretions of natural tear components” value in data set [4] is listed as “increased”.

Regarding `Clc1ccc2c(c1)CCc1cccnc1C2=C1CCNCC1` [DL, desloratadine], in data set [1] (DL 2.5 mg BID), the “least square mean change from baseline in the average AM/PM PRIOR post nasal drip score, percent” value was −24.8% and the “least square mean change from baseline in the average AM/PM PRIOR post nasal drip score” value was −0.68. Also, the “total symptom score excluding post nasal drip, treatment difference vs. placebo” value in data set [1] (DL 2.5 mg BID, 7 days) came to 0.71 point. Moreover, the “anterior rhinorrhea treatment difference vs. placebo” value in data set [1] (7 days) is given as 0.03 points.
